This note sets out measurements from patent US8475783B2, “Apparatus and method for generating carbon dioxide as an attractant for biting arthropods” (priority 2011, dated 2013).

The assay concerns mosquitoes. As to the kind of experiment: Field mosquito collection with CDC-type mosquito trap baited with carbon dioxide. In kind it is in vivo. Particulars: for mosquitoes collected: carbon dioxide flow rate 250 mL/min. As to the method: As in Example 2, except that the sodium bicarbonate was delivered at 0.94 g·min so as to give a carbon dioxide flow rate of 250 mL/min. The gas outlet was coupled to a CDC-type mosquito trap, available from the John W. Hock Company of Gainesville Fla., and allowed to collect mosquitoes for 12 hours. For comparison, a similar trap but with carbon dioxide from a tank was placed about 100 m away. Sites were selected so as to provide a testing area that is known to be infested by mosquitoes and to provide similar terrain. In the comparison apparatus care was taken to use the same carbon dioxide flow rate.

For the compound `O=C=O` [CO2 Gas Tank, carbon dioxide], the mosquitoes collected turned out to be 12 (Aug. 2, 2010, 12 hours); 1 (Aug. 5, 2010, 12 hours); 73 (Jul. 8, 2010, 12 hours); 49 (Jul. 12, 2010, 12 hours); 14 (Jul. 14, 2010, 12 hours); 73 (Jul. 15, 2010, 12 hours). Further, the mosquitoes collected is recorded as 53 (Jul. 20, 2010, 12 hours); 99 (Jun. 23, 2010, 12 hours); 34 (Jun. 29, 2010, 12 hours). Besides, for the setting “sum over 9 non-consecutive days, 12 hours each, 250 mL/min carbon dioxide”, the “Total collected (mosquitoes)” value worked out at 408.
